Data published in patent publication US8212014B2, “Artificial base pairs and uses thereof” (Riken, priority 2005, dated 2012).
Several values for one entry are separate records, joined by “and”; a condition that tells them apart may be missing. Equal entries are not always repeated. Where two headings read alike, the source gives them in different places. [s] = deoxynucleotide carrying the publication's artificial base s, incorporated via its phosphoramidite; [v] = deoxynucleotide carrying the publication's artificial base v, incorporated via its phosphoramidite

Assays:
[1] = molecular target: T1, T7 RNA polymerase (Escherichia phage T7, UniProt P00573); conditions: natural NTPs 1 mM, sTP 1 mM; for relative yield of full-length (17-mer) transcript: template DNA containing one unnatural base, natural-base template set to 100%; for full-length transcript formation: template containing two unnatural bases
Experimental: Transcription was performed in a 40 mM Tris-HCl (pH 8.0) buffer solution (20 μl) containing 24 mM MgCl2, 2 mM spermidine, 5 mM DTT and 0.01% Triton X-100, in the presence of 1 mM natural NTPs or 1 mM sTP, 2 μCi [γ-^32P]GTP, 2 μM template and 50 units of T7 RNA polymerase (Takara, Kyoto).
The use of [γ-^32P]GTP allowed determination of yields because the transcripts were labeled only at their 5′-end. After incubation at 37° C. for 3 hours, a dye solution (20 μl ) containing 10 M urea and 0.05% BPB was added to stop the reaction. The mixtures were each heated at 75° C. for 3 hours and the products were analyzed on a 20% polyacrylamide-7 M urea gel.
These templates were used to effect transcription for 3 hours, and the transcripts whose 5′-end was labeled with [γ-^32P]GTP were analyzed on a gel. […] The transcripts are labeled with [γ-^32P]GTP at their 5′-end. The relative yield of each transcript was determined in comparison with the yield of a transcript from a template composed only of natural bases, which was set to 100%. Each yield was averaged from 3 to 4 data sets.

[2] = Excitation and fluorescence spectra of the fluorescent bases; type: physicochemical; conditions: for fluorescence wavelength, center: excited at the stated excitation wavelength
[3] = molecular target: T1, T7 RNA polymerase
Experimental: In this example, to study the selectivity of s-Pa base pair during transcription, composition analysis was performed on nucleotides in the full-length (17-mer) transcripts obtained by transcription from Pa, z and natural templates. The transcripts were each internally labeled with any of [α-^32P]UTP, [α-^32P]ATP or [α-^32]GTP, and these transcripts were completely digested with RNase T2 into a nucleoside 3′-phosphate form. The resulting labeled nucleotides were analyzed by 2D-TLC (FIG. 3), and the spots were quantified for each nucleoside 3′-monophosphate (Table 1).
More specifically, transcription was performed in 40 mM Tris-HCl (pH 8.0) buffer (20 μl) containing 24 mM MgCl2, 2 mM spermidine, 5 mM DTT and 0.01% Triton X-100, in the presence of 10 mM GMP, 1 mM natural NTPs (1 mM, N=A, G, C, U), 0, 1 or 3 mM sTP, 2 μCi [γ-^32P]UTP, [γ-^32P]ATP or [γ-^32P]GTP (Amersham), 2 μM template DNA, and 50 units of T7 RNA polymerase (Takara) (Non-patent Documents 14 and 15). After incubation for 3 hours at 37° C., a dye solution was added to stop the transcription.
This mixture was heated at 75° C. for 3 hours and then electrophoresed on a 15% polyacrylamide-7 M urea gel. The full-length product was eluted from the gel and 0.05 A260 units of E. coli tRNA was then added thereto, followed by ethanol precipitation. The transcript was digested at 37° C. for 2 hours with 0.075 U/μl RNase T2 in 15 mM sodium acetate buffer (pH 4.5). […] The digestion products were analyzed by 2D-TLC using a Merck HPTLC plate (100×100 mm, Merck, Darmstadt, Germany). The developing solvents used for the first and second dimensions were isobutyric acid/NH4OH/H2O (66:1:33 v/v/v) and isopropyl alcohol/HCl/H2O (70:15:15 v/v/v), respectively. The products on the TLC plate were analyzed with a bio-imaging analyzer. Each spot was quantified by averaging from 3 to 9 data sets.

[4] = molecular target: T1, T7 RNA polymerase; conditions: 1 mM yTP; template composed only of natural bases (Entry No. 10)
Experimental: T7 RNA polymerase-mediated transcription reaction was accomplished in a reaction solution containing 40 mM Tris-HCl buffer (pH 8.0), 8 mM MgCl2, 2 mM spermidine, 5 mM DTT, 0.01% Triton X-100, 2 μCi [α-^32P]ATP or 2 μCi [α-^32P]GTP or 2 μCi [α-^32P]CTP or 2 μCi [α-^32P]UTP, 1 mM NTPs, 0-1 mM sTP, 0-1 mM yTP, 0.5 μM template DNA, and 50 units of T7 RNA polymerase (Takara). The transcript was purified by electrophoresis on a 15% polyacrylamide-7 M urea gel, eluted from the gel and then collected by ethanol precipitation in the presence of tRNA (0.05 OD). This sample was dissolved in 10 μl sterilized water, and the resulting solution (8.5 μl) was provided for complete digestion with RNase T2. To the solution (8.5 μl), RNase T2 (1.5 μl, 0.5 U/μl) was added and reacted at 37° C. for 2 hours. A part of this solution was spotted on a TLC plate (Merck, 10 cm×10 cm) and developed two-dimensionally. The developing solutions used for the first and second dimensions were isobutyric acid:concentrated aqueous ammonia:water=66:1:33 (v/v/v) and 2-propanol:hydrochloric acid:water=65:10:25 (v/v/v), respectively.
In this technique, upon incorporation of a radioactive substrate, a nucleotide located at the 5′-side of the substrate can be detected on two-dimensional TLC. […]

[5] = FRET between s or v in 35-mer DNA and FAM-y or FAM-hx-y in 17-mer RNA (DNA/RNA duplexes); type: physicochemical; conditions: for FRET with 17-mer RNA using excessive DNA probe: 10 molar equivalents of DNA against the 17-mer RNA
Description: (§1) DNA containing an artificial base s or v was synthesized as described, for example, in WO 01/05801 or WO 2005/026187 by using a cyanoethylphosphoroamidite derivative of a nucleotide containing an artificial base s or v in accordance with the DNA chemical synthesis method well known in the art. The sequence of the chemically synthesized 35-mer DNA is as follows: 5′-CAN1N2N3[…]-3′ (SEQ ID NO: 20; DNA in which N1N2N3 is CTs or CTv is referred to as DNA35s1 or DNA35v1, respectively; DNA in which N1N2N3 is Css or Cvv is referred to as DNA35s2a or DNA35v2a, respectively; and DNA in which N1N2N3 is sTs or vTv is referred to as DNA35s2b or DNA35v2b, respectively). The resulting DNA was purified by gel electrophoresis.
17-mer RNA incorporating FAM-y or FAM-hx-y at the N′ position (5′-[…]′AGUG-3′; SEQ ID NO: 21) was prepared through T7 transcription using T7 RNA polymerase and a substrate of FAM-y or FAM-hx-y (FAM-yTP or FAM-hx-yTP). […] The reaction mixture was heated at 75° C. for 3 minutes and the 17-mer transcript was purified by gel electrophoresis.
(§2) Fluorescence spectra were measured in a buffer containing 10 mM sodium phosphate (pH 7.0), 100 mM NaCl and 0.1 mM EDTA. Emission spectra were recorded with an excitation wavelength of 350 nm for s and 360 nm for v, respectively. The emission spectral bandpass was set to 5 nm.
The 17-mer RNA site-specifically incorporating FAM-y or FAM-hx-y was hybridized with 35-mer DNA site-specifically containing one or two s or v bases (DNA35s1, 35s2a, 35S2b, 35v1, 35v2a or 35v2b) to measure emission spectra for the DNA/RNA duplex at different temperatures (20° C. and 70° C.).

[6] = Steady-state fluorescence emission of single-stranded DNAs containing s or v; type: physicochemical; conditions: single-stranded 35-mer DNA with two artificial bases
Description: as §1, §2

T1 sequence (P00573 whole entry): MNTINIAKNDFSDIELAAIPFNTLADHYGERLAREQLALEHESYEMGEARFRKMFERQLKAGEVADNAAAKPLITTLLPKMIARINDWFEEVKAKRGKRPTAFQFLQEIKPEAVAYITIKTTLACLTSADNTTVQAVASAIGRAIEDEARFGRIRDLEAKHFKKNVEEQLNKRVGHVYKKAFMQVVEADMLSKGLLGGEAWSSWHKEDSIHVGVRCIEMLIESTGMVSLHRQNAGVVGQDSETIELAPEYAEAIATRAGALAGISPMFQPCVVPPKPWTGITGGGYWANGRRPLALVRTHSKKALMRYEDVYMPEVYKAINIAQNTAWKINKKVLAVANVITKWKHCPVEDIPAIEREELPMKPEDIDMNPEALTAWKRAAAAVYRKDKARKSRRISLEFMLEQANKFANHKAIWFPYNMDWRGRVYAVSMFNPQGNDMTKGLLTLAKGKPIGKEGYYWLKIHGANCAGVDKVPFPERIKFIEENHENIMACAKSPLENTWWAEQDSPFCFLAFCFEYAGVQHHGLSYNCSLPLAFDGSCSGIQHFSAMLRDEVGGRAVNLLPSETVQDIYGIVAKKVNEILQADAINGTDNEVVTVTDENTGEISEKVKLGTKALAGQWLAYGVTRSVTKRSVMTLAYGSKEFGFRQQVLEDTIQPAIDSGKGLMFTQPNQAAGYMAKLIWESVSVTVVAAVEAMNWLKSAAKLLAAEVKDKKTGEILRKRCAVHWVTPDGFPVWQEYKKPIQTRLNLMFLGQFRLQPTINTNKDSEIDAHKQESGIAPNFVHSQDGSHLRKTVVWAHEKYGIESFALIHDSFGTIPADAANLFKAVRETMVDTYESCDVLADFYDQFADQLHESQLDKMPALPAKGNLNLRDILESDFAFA

Question: Which “relative yield of full-length (17-mer) transcript” value [1] does the source give for 2-formyl-1H-pyrrol-1-yl group [Pa] here?
Answer: 92%

Question: What about the full-length transcript formation [1] of the same compound?
Answer: full-length products were obtained

Question: With “2-oxo-1,3-dihydroimidazol-1-yl group [reference compound]” as the compound, how does the “relative yield of full-length (17-mer) transcript” value [1] read?
Answer: 35%

Question: And the full-length transcript formation [1]?
Answer: no full-length transcript was obtained

Question: For `Nc1nc(-c2cccs2)c2nc[nH]c2n1` [s, 2-amino-6-(2-thienyl)-9H-purin-9-yl group], which “excitation wavelength (maximum)” value [2] is on record?
Answer: 352 nm and 299 nm

Question: And the “fluorescence wavelength, center” value [2]?
Answer: 434 nm

Question: What about the “quantum yield of the fluorescence” value ([2]; pH 7.0) of the same compound?
Answer: 0.41

Question: And the “selectivity of s incorporation into RNA opposite Pa in the template DNA” value ([3]; template containing one Pa base, sTP 1 mM (Table 1, Entry No. 1))?
Answer: 97%

Question: And the “selectivity of s incorporation at the first position” value ([3]; template containing two Pa bases)?
Answer: 95%

Question: What about the “selectivity of s incorporation at the second position” value ([3]; template containing two Pa bases, sTP 1 mM) of the same compound?
Answer: 84-87%

Question: And the “selectivity of s incorporation at the second position” value ([3]; template containing two Pa bases, sTP 3 mM)?
Answer: 89-93%

Question: Which “misincorporation of sTP opposite natural bases in the template” value ([3]; Table 1, Entry Nos. 4 and 6) does the source give for `Nc1nc(-c2cccs2)c2ncn([C@@H]3O[C@H](COP(=O)(O)OP(=O)(O)OP(=O)(O)O)[C@@H](O)[C@H]3O)c2n1` [sTP, 2-amino-6-(2-thienyl)-9-(1-β-D-ribofuranosyl)purine 5′-triphosphate] here?
Answer: no misincorporation

Question: For `c1csc(-c2ncnc3[nH]cnc23)c1` [s′, 6-(2-thienyl)-9H-purin-9-yl group], which “excitation wavelength (maximum)” value [2] is on record?
Answer: 325 nm

Question: What about the “fluorescence wavelength, center” value [2] of the same compound?
Answer: 381 nm

Question: Which “excitation wavelength (maximum)” value [2] does the source give for `Nc1nc(-c2nccs2)c2nc[nH]c2n1` [v, 2-amino-6-(2-thiazolyl)-9H-purin-9-yl group] here?
Answer: 363 nm

Question: What about the “fluorescence wavelength, center” value [2] of the same compound?
Answer: 461 nm

Question: For `O=c1[nH]cccc1C1OC(COP(=O)(O)OP(=O)(O)OP(=O)(O)O)C(O)C1O` (stereo not shown) [yTP], which “incorporation of yp opposite natural template bases” value [4] is on record?
Answer: a slight amount of yp was incorporated

Question: What does the source list for “DNA35s1: 35-mer DNA (SEQ ID NO: 20) in which N1N2N3 is CTs (DNA CACTNCTCGGGATTCCCTATAGTGAGTCGTATTAT; DNA, [s] at 5, backbone, methylation of C and the base at N not given here)”?
Answer: FRET with 17-mer RNA using excessive DNA probe [5]: completely buried in the background fluorescence; FRET in duplex with 17-mer RNA incorporating FAM-y or FAM-hx-y ([5]; 20° C.): FRET occurred; FRET in duplex with 17-mer RNA incorporating FAM-y or FAM-hx-y ([5]; duplex denatured at 70° C.): FRET was significantly reduced

Question: With “DNA35s2a: 35-mer DNA (SEQ ID NO: 20) in which N1N2N3 is Css (DNA CACNNCTCGGGATTCCCTATAGTGAGTCGTATTAT; DNA, [s] at 4, 5, backbone, methylation of C and the base at N not given here)” as the compound, how does the “FRET with 17-mer RNA using excessive DNA probe” value [5] read?
Answer: FRET was clearly observed

Question: What about the “FRET in duplex with 17-mer RNA incorporating FAM-y or FAM-hx-y” value (“FRET in duplex” below) ([5]; 20° C.) of the same compound?
Answer: FRET occurred efficiently

Question: What about the “fluorescence intensity of single-stranded DNA” value (from here on “fluorescence intensity”) [6] of the same compound?
Answer: significantly decreased

Question: For “DNA35s2b: 35-mer DNA (SEQ ID NO: 20) in which N1N2N3 is sTs (DNA CANTNCTCGGGATTCCCTATAGTGAGTCGTATTAT; DNA, [s] at 3, 5, backbone, methylation of C and the base at N not given here)”, which “fluorescence intensity” value [6] is on record?
Answer: no significant decrease

Question: For “DNA35v1: 35-mer DNA (SEQ ID NO: 20) in which N1N2N3 is CTv (DNA CACTNCTCGGGATTCCCTATAGTGAGTCGTATTAT; DNA, [v] at 5, backbone, methylation of C and the base at N not given here)”, which “FRET with 17-mer RNA using excessive DNA probe” value [5] is on record?
Answer: completely buried in the background fluorescence

Question: And the “FRET in duplex” value ([5]; 20° C.)?
Answer: FRET occurred

Question: What about the “FRET in duplex” value ([5]; duplex denatured at 70° C.) of the same compound?
Answer: FRET was significantly reduced

Question: Which results are given for “DNA35v2a: 35-mer DNA (SEQ ID NO: 20) in which N1N2N3 is Cvv (DNA CACNNCTCGGGATTCCCTATAGTGAGTCGTATTAT; DNA, [v] at 4, 5, backbone, methylation of C and the base at N not given here)”?
Answer: FRET with 17-mer RNA using excessive DNA probe [5]: FRET was clearly observed; FRET in duplex with 17-mer RNA incorporating FAM-y or FAM-hx-y ([5]; 20° C.): FRET occurred efficiently; fluorescence intensity of single-stranded DNA [6]: significantly decreased

Question: Which “fluorescence intensity” value [6] does the source give for “DNA35v2b: 35-mer DNA (SEQ ID NO: 20) in which N1N2N3 is vTv (DNA CANTNCTCGGGATTCCCTATAGTGAGTCGTATTAT; DNA, [v] at 3, 5, backbone, methylation of C and the base at N not given here)” here?
Answer: no significant decrease
